Ten compounds from US10174016B2 (BAYER AKTIENGESELLSCHAFT, priority 2014, dated 2019) can be followed below.

Each structure is given as a SMILES string. Read-outs that look alike come from different tables or passages of the source.

One experiment addresses human P2X3 receptor (Homo sapiens (Human), UniProt P56373). Briefly: Intracellular calcium measurement (FLIPR, Fluo-4) of antagonist activity at human P2X3 receptors. The note with it: read-out: hP2X3 IC50. The format is cell-based. Put shortly:
(§1)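 Cells expressing human P2X3 or P2X2/3, loaded with Fluo-4, preincubated 30 min at 37° C. with compound (1% DMSO final), then challenged with α,β-Me-ATP at its EC80. Peak FLIPR fluorescence over 90 sec gave % response; IC50, maximal inhibition and Hill slope from triplicates.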
A general note: Calcium assays in cells follow changes in intracellular calcium, usually with a dye or a luminescent sensor.

In a further experiment the target is human P2X2/3 receptor (Homo sapiens (Human), UniProt P56373+Q9UBL9). Kind of experiment: Intracellular calcium measurement (FLIPR, Fluo-4) of antagonist activity at human P2X2/3 receptors. It is filed as cell-based. The note with it: human P2X2/3, FLIPR calcium assay, agonist α,β-Me-ATP; read-out: hP2X2/3 IC50. Put shortly: as §1
Setting [1] is: human P2X3, FLIPR calcium assay, agonist α,β-Me-ATP.

human P2X3 receptor, sequence (P56373 whole entry): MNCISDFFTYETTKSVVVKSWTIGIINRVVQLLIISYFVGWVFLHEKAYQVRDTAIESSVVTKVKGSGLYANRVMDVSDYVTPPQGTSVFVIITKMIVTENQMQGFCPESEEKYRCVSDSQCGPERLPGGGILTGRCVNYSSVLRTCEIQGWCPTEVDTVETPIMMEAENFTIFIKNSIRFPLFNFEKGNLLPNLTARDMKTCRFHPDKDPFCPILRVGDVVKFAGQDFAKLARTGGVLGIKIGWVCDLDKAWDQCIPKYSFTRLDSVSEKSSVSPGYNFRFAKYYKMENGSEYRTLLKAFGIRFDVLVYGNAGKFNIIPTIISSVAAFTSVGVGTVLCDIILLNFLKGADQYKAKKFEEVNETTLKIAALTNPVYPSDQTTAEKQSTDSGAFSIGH
human P2X2/3 receptor, sequence (P56373 whole entry): as above
human P2X2/3 receptor, sequence (Q9UBL9 whole entry): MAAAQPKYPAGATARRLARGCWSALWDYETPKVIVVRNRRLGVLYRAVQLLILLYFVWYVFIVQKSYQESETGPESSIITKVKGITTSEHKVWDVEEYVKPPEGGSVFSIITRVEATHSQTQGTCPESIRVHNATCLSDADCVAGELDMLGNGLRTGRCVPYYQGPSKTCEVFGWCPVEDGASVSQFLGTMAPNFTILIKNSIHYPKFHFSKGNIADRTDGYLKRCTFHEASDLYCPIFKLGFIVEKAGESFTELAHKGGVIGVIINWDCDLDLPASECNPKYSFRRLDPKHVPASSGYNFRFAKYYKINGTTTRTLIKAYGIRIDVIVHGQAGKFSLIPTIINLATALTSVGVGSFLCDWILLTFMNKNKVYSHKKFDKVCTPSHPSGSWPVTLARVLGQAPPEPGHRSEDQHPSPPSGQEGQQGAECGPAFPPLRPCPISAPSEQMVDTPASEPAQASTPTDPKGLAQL

On to `CCc1cnc(-c2cc(OC[C@@H]3CCCO3)cc(C(=O)N[C@H](C)c3cnc(C)cn3)c2)s1` [Example 283, 3-(5-ethyl-1,3-thiazol-2-yl)-N-[(1R)-1-(5-methylpyrazin-2-yl)ethyl]-5-[(2S)-tetrahydrofuran-2-ylmethoxy]benzamide], for which the results for the IC50 on human P2X3 receptor and on human P2X2/3 receptor were 10 nM and 379 nM, respectively.

For the compound `CCc1cnc(-c2cc(OC[C@@H]3CCCO3)cc(C(=O)N[C@H](C)c3cnc(C(F)(F)F)nc3)c2)s1` [Example 284, 3-(5-ethyl-1,3-thiazol-2-yl)-5-[(2S)-tetrahydrofuran-2-ylmethoxy]-N-{(1R)-1-[2-(trifluoromethyl)pyrimidin-5-yl]ethyl}benzamide], the IC50 on human P2X3 receptor (setting [1]) turned out to be 4 nM; at human P2X2/3 receptor, 57 nM.

In the case of `Cc1ccc([C@@H](C)NC(=O)c2cc(OC[C@@H]3CCCO3)cc(-c3ncc(C4CCC4)s3)c2)nn1` [Example 285, 3-(5-cyclobutyl-1,3-thiazol-2-yl)-N-[(1R)-1-(6-methylpyridazin-3-yl)ethyl]-5-[(2S)-tetrahydrofuran-2-ylmethoxy]benzamide], the IC50 worked out at 113 nM at human P2X3 receptor (setting [1]) and 760 nM at human P2X2/3 receptor.

In the case of `C[C@@H](NC(=O)c1cc(OC[C@@H]2CCCO2)cc(-c2ncc(C3CCC3)s2)c1)c1cnc(C(F)(F)F)nc1` [Example 287, 3-(5-cyclobutyl-1,3-thiazol-2-yl)-5-[(2S)-tetrahydrofuran-2-ylmethoxy]-N-{(1R)-1-[2-(trifluoromethyl)pyrimidin-5-yl]ethyl}benzamide], the IC50 on human P2X3 receptor (setting [1]) turned out to be 35 nM; at human P2X2/3 receptor it was 275 nM.

In the case of `Cc1ccc([C@@H](C)NC(=O)c2cc(OC[C@@H]3CCCO3)cc(-c3ncc(C(C)C)s3)c2)nn1` [Example 288, N-[(1R)-1-(6-methylpyridazin-3-yl)ethyl]-3-[5-(propan-2-yl)-1,3-thiazol-2-yl]-5-[(2S)-tetrahydrofuran-2-ylmethoxy]benzamide], the IC50 at human P2X3 receptor (setting [1]) amounted to 150 nM; at human P2X2/3 receptor it was 1310 nM.

In the case of `CC(C)c1cnc(-c2cc(OC[C@@H]3CCCO3)cc(C(=O)N[C@H](C)c3cnc(C(F)(F)F)nc3)c2)s1` [Example 290, 3-[5-(propan-2-yl)-1,3-thiazol-2-yl]-5-[(2S)-tetrahydrofuran-2-ylmethoxy]-N-{(1R)-1-[2-(trifluoromethyl)pyrimidin-5-yl]ethyl}benzamide], the values for the IC50 on human P2X3 receptor and on human P2X2/3 receptor were 31 nM and 368 nM, respectively.

On to `CC(C)c1cnc(-c2cc(OC[C@@H]3CCOC3)cc(C(=O)N[C@H](C)c3ccc(C(F)(F)F)nn3)c2)s1` [Example 293, 3-[5-(propan-2-yl)-1,3-thiazol-2-yl]-5-[(3R)-tetrahydrofuran-3-ylmethoxy]-N-{(1R)-1-[6-(trifluoromethyl)pyridazin-3-yl]ethyl}benzamide], for which the IC50 was 63 nM at human P2X3 receptor (setting [1]) and 1160 nM at human P2X2/3 receptor.

Regarding `CC(C)c1cnc(-c2cc(O[C@@H]3CCOC3)cc(C(=O)N[C@H](C)c3ccc(C(F)(F)F)nn3)c2)s1` [Example 294, 3-[5-(propan-2-yl)-1,3-thiazol-2-yl]-5-[(3R)-tetrahydrofuran-3-yloxy]-N-{(1R)-1-[6-(trifluoromethyl)pyridazin-3-yl]ethyl}benzamide], the IC50 on human P2X3 receptor (setting [1]) was determined as 101 nM; on human P2X2/3 receptor, 1060 nM.

With `C[C@@H](NC(=O)c1cc(OC[C@@H]2CCOC2)cc(-c2ncc(C3CCC3)s2)c1)c1ccc(C(F)(F)F)nn1` [Example 297, 3-(5-cyclobutyl-1,3-thiazol-2-yl)-5-[(3R)-tetrahydrofuran-3-ylmethoxy]-N-{(1R)-1-[6-(trifluoromethyl)pyridazin-3-yl]ethyl}benzamide], the figures for the IC50 on human P2X3 receptor (setting [1]) and on human P2X2/3 receptor were 56 nM and 933 nM, respectively.

Turning to `CC(C)c1cnc(-c2cc(OC[C@H]3CCOC3)cc(C(=O)N[C@H](C)c3ccc(C(F)(F)F)nn3)c2)s1` [Example 298, 3-[5-(propan-2-yl)-1,3-thiazol-2-yl]-5-[(3S)-tetrahydrofuran-3-ylmethoxy]-N-{(1R)-1-[6-(trifluoromethyl)pyridazin-3-yl]ethyl}benzamide], the IC50 at human P2X3 receptor (setting [1]) was 62 nM; on human P2X2/3 receptor, 781 nM.
